Measured values taken from PMC4640066 (Nature Communications, 2015).

Key:
[1] = molecular target: T1, human γ-tubulin (Homo sapiens, UniProt P23258); experiment: Tryptophan-based drug-binding assay, γ-tubulin; conditions: for Ratio of Kd[α/β-tubulin]/Kd[γ-tubulin]: selectivity for γ-tubulin over α/β-tubulin
T1 construct: myc (C); 6His (C); made in house; host or cells: Sf21 insect cells (baculovirus)
Protocol: In brief, 0.7 × 10^6 cells ml^−1 were infected with the γ-tubulin baculovirus. After 48 h, cells were collected by centrifugation at […] for 10 min and flash-frozen in liquid nitrogen and stored at −80 °C. Purification was carried out as described with slight modifications. […] Imidazole (final 10 mM) was added and the lysate was centrifuged again at 192,800g for 30 min at 4 °C. […] Ni-NTA Agarose was then washed twice with wash buffer 1 (lysis buffer containing 25 mM imidazole) and wash buffer 2 (50 mM MES pH 6.6, 500 mM KCl, 5 mM MgCl2, 10% glycerol, 10 μM GTP and 1 mM DTT) containing 25 mM imidazole. γ-Tubulin was eluted with wash buffer 2 containing 200 mM imidazole.
Monomeric γ-tubulin was prepared using a size exclusion column HiLoad 16/60 Superdex 200 pre-equilibrated with gel filtration buffer (50 mM MES pH 6.6, 500 mM KCl, 5 mM MgCl2, 1 mM EGTA, 10 μM GTP and 1 mM DTT). The peak fractions representing monomeric γ-tubulin were identified by A280 and confirmed using SDS–PAGE. Protein was concentrated using a Vivaspin concentrator (Sartorius) and supplemented with 10% glycerol, following snap-freezing in liquid nitrogen and storage at −80 °C.
Gel filtration buffer for γ-tubulin purification (50 mM MES pH 6.6, 500 mM KCl, 5 mM MgCl2, 1 mM EGTA and 1 mM DTT) supplemented with 10% of glycerol was used as an assay buffer. γ-tubulin and α/β-tubulin were diluted in this assay buffer to reach a final protein concentration of 1 μM. A final concentration of 10 μM or 1 mM GTP was added to the samples. Proteins were incubated for 30 min with compounds (final DMSO concentration was 1%; 2% for AG1 and gatastatin). […] Dissociation constants were calculated from fitting curves of decreasing fluorescence (ΔFL) using the GraphPad Prizm software.

[2] = test system: DMSO-stimulated, γ-tubulin-independent aster formation; experiment: DMSO-stimulated aster formation in M-phase Xenopus egg extracts; assay type: biochemical; conditions: M-phase-arrested Xenopus egg extracts, 5% DMSO, 20 min at 20 °C
Protocol: Cytostatic factor (CSF)-arrested M phase Xenopus egg extracts (CSF extracts) were prepared. Briefly, unfertilized eggs were crushed by 10,700g centrifugation for 20 min. M phase extracts were mixed with 0.5 μM Cy3-labelled α/β-tubulin and various concentrations of compounds. After incubation for 30 min on ice, 15 μM RanQ69L, 200 sperm nuclei per μl or 5% DMSO were added and incubated for 30 min on ice. After incubation for 20 min at 20 °C (for the samples with sperm nuclei, the incubation time was 30 min), 1.5 μl sample was fixed with 1.5 μl fix solution (0.3 volume of 37% formaldehyde, 0.6 volume of 80% glycerol and 0.1 vol of 10 × MMR solution (50 mM HEPES, pH 7.8, 1 M NaCl, 20 mM KCl, 10 mM MgCl2, 20 mM CaCl2 and 1 mM EDTA)), followed by the squash fix.
Images were acquired using a microscope (Axiovert 200 M; Carl Zeiss Inc.) equipped with a plan-Apochromat × 63 NA 1.3 oil objective lens (Carl Zeiss Inc.), a Cy3 emission filter and a Cascade:1 K (Photometrics Inc.) camera, and the AxioVision software (Carl Zeiss Inc.). The aster size and fluorescence intensity were quantified using a macro written in MATLAB[41].

[3] = test system: HeLa cells; experiment: Spindle length of MG132-arrested metaphase cells; assay type: cell-based, human; conditions: 30 μM, 2 h in the presence of MG132, HeLa
Protocol: Exponentially growing HeLa cells were treated with 30 μM of gatastatin for 9 h. Cells were fixed with cold MeOH (−20 °C). Immunostaining was performed as described above using anti-α-tubulin (1:250 dilution, Santa Cruz, Cat# sc-32293) and anti-pericentrin (1:250 dilution, Abcam, Cat# ab4448) antibodies. After staining with Alexa^488-conjugated anti-mouse IgG (1:2,000 dilution, Invitrogen, Cat#A11001) and Alexa^568-conjugated anti-rabbit IgG (1:2,000 dilution, Invitrogen, Cat#A11011), cells were washed four times with PBS and mounted with PBS containing 0.1 μg ml^−1 DAPI. Spindle structure was observed under a Leica LAS AF 6000 fluorescence microscope (Leica Microsystems). Images of 41 sections at 0.251-μm intervals were collected. The position of the two pericentrin signals of mitotic cells was analysed using the ImageJ software, and then their distance was calculated.
For analysis of the length of the bipolar spindle in MG132-treated cells, HeLa cells were arrested at prometaphase with 10 μM of STLC for 15 h, followed by STLC removal by washing the cells with the medium three times to remove STLC. […]
Immunostaining was performed as described above using anti-α-tubulin (1:250 dilution, Santa Cruz, Cat# sc-32293) and anti-pericentrin (1:250 dilution, Abcam, Cat# ab4448) antibodies. Spindle structure was observed under a Leica LAS AF 6000 fluorescence microscope (Leica Microsystems). […]

T1 sequence (P23258 whole entry): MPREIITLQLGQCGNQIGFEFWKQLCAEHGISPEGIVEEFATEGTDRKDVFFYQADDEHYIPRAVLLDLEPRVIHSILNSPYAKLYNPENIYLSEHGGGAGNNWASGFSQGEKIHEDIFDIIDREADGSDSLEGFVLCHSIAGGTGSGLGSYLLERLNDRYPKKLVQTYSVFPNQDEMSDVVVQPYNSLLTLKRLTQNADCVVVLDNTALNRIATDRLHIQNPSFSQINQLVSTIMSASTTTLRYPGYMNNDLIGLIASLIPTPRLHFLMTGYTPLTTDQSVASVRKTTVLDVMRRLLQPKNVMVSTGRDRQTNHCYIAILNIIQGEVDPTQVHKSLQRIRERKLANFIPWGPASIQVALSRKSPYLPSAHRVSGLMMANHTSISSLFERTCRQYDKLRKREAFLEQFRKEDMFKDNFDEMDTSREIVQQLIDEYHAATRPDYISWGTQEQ

Ratio of Kd[α/β-tubulin]/Kd[γ-tubulin] [1]: 11.81 | Ratio of Kd[α/β-tubulin]/Kd[γ-tubulin] ([1]; listed as gatastatin): 12 | Kd ([1]; tryptophan fluorescence decrease, 1 μM protein, mean±s.d., three independent experiments): 3.6 ± 1.3 µM | IC50 [2]: > 100 µM
SMILES: COc1cc2c(=O)c(-c3cc(OC)c4c(c3OC)OCO4)coc2cc1OCc1ccccc1 [Gatastatin, O^7-demethylbenzyl AG1]
Reduction of the length of the metaphase spindle compared with the control [3]: 22%
